Measurements from US20250367269A1, “KYNURENINE AMINOTRANSFERASE AND PRODUCTS THEREOF FOR THE TREATMENT OF ARTHRITIC DISEASES” (Institut National de Recherche Pour L'Agriculture, …, priority 2022, published 2025).

Tested on: collagen-antibody induced arthritis
Assay: collagen-antibody induced arthritis model
Format: in vivo, C57BL6J male mice
Conditions: administration in collagen-antibody induced arthritis mouse model; summary statement, no details
Method: C57BL6J male mice were injected intraperitoneally with a cocktail of arthritogenic anti-type II collagen (2 mg/mouse) at day 0. At day 3, mice received an injection of lipopolysaccharide from bacterial cells walls of E. coli 055: B5. The severity of arthritis was evaluated every other day on each paw with a score from 0 to 4, for a maximal score of 16 by animal (0=normal joint, 1=moderate redness and slight swelling or swelling of one or two digits, 2=moderate redness and moderate paw swelling or swelling more than three digits, 3=redness and swelling from tarsal joints to metatarsal joints, 4=severe redness and severe swelling of the entire paw). Hindpaw swelling was measured at the same time by plethysmography. Paw volume determined prior to disease induction was used as the baseline. The development of arthritis was analyzed by histological assessment. Hindpaws were dissected then fixed in 4% formalin (Labonord). Hindpaws were further decalcified in 10% EDTA for 1 month and embedded in paraffin blocks. Five μm-thick tissue sections were cut and two stainings were performed, hematoxylin, eosin and toluidine blue. Histological examination was carried out blindly by three independent observers. Synovium from ankle joint was graded on a scale of 0 to 3 (with 0=normal and 3=major changes) for synovial hyperplasia (width of lining layer) and tissue cell infiltration. […]

SMILES: O=C(O)c1cc(O)c2cccc(O)c2n1 [xanthurenic acid]
- arthritis severity: reduces arthritis severity
